Converted amounts (≈) assume the structure as drawn.
Legend:
[1] = system: Jurkat; assay: Inhibition of IL2 production in Jurkat E6-1 T cells by ELISA; settings: Homo sapiens
[2] = Aqueous solubility at pH 7.4; assay type: physicochemical
[3] = Loss of metabolic stability in Sprague-Dawley rat hepatocytes after 1 hr at 1 uM; assay type: ADME, cell-based, Hepatocyte; settings: read-out: Activity
[4] = biological target: Tyrosine-protein kinase Lck (Homo sapiens, UniProt P06239)
Description: Inhibition of human recombinant Lck by ProFlour assay

[5] = biological target: Proto-oncogene tyrosine-protein kinase Src (Homo sapiens, UniProt P12931); assay: Inhibition of human recombinant Src by ProFlour assay
Chain of Proto-oncogene tyrosine-protein kinase Src (P12931 2-536 limits assumed): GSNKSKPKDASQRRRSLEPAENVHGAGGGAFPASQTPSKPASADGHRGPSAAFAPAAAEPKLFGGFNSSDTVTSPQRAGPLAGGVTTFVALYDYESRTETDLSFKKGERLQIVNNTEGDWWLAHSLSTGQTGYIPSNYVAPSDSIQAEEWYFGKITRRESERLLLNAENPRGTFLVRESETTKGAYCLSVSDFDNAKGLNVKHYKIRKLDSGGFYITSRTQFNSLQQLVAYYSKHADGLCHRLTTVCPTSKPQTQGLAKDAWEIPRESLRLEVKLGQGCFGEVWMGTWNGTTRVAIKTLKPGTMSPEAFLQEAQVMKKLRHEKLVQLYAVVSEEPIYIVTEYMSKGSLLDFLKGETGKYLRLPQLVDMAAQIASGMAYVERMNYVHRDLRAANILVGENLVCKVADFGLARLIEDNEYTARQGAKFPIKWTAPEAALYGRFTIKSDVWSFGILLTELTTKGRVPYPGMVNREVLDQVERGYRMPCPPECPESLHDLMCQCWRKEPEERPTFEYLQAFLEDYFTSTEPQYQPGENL

Chain of Tyrosine-protein kinase Lck (P06239 whole entry): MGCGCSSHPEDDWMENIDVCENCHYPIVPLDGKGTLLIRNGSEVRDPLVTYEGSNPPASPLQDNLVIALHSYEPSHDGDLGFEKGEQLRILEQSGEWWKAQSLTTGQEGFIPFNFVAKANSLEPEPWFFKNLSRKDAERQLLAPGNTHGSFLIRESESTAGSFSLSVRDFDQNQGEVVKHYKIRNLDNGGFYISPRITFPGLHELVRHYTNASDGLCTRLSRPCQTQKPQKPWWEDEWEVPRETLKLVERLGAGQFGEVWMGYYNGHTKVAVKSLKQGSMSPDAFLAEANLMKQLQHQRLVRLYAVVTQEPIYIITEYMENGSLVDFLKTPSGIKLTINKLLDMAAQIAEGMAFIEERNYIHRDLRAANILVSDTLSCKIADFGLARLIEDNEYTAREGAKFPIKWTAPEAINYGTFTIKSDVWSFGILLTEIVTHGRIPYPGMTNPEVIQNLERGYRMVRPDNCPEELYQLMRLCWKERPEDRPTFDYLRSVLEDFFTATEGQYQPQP

Row | Compound | IC50 [1] | solubility [2] | metabolised at 1 h, 1 µM [3] | IC50 [4] | IC50 [5]
1 | Cc1ccc(O)cc1Nc1cc(NCCN2CCN(C)CC2)nc(-n2cnc3ccccc32)n1 | 2280 nM | 54 µg/mL (≈ 118 µM) | 39% |  | 
2 | COc1ccc(C)c(Nc2nccc(-n3cnc4ccccc43)n2)c1 |  |  |  | > 10000 nM | 
3 | Cc1ccc(O)cc1Nc1cc(CC2CCN(C)CC2)nc(-n2cnc3ccccc32)n1 | 163 nM | 40 µg/mL (≈ 93.3 µM) |  |  | 
4 | Cc1ccc(O)cc1Nc1cc(N2CCN(C)CC2)nc(-n2cnc3ccccc32)n1 |  | ≤ 0.1 µg/mL |  |  | 
5 | Cc1ccc(O)cc1Nc1cc(OCCN2CCOCC2)nc(-n2cnc3ccccc32)n1 | 54 nM | 3 µg/mL (≈ 6.72 µM) | 48% |  | 
6 | Cc1ccc(O)cc1Nc1cc(OCCN2CCN(C)CC2)nc(-n2cnc3ccccc32)n1 | 400 nM | 70 µg/mL (≈ 152 µM) | 35% |  | 
7 | Cc1ccc(F)cc1Nc1ccnc(-n2cnc3ccccc32)n1 |  |  |  | > 10000 nM | 
8 | Cc1ccc(O)cc1Nc1cc(-n2cnc3ccccc32)ncn1 |  |  |  | > 10000 nM | 
9 | Cc1ccc(O)cc1Nc1cc(NCCCN(C)C)nc(-n2cnc3ccccc32)n1 | 2200 nM | 55 µg/mL (≈ 132 µM) | 48% |  | 
10 | COc1ccc(C)c(Nc2cc(OCCN3CCOCC3)nc(-n3cnc4ccccc43)n2)c1 | 1270 nM | 27 µg/mL (≈ 58.6 µM) |  |  | 
11 | Oc1cccc(Nc2nccc(-n3cnc4ccccc43)n2)c1 |  |  |  | > 10000 nM | 
12 | CCN(CC)CCNc1cc(Nc2cc(O)ccc2C)nc(-n2cnc3ccccc32)n1 | 549 nM | 127 µg/mL (≈ 294 µM) | 45% |  | 162 nM
